Laboratory results from patent US20200375987A1, “METALLO-BETA-LACTAMASE INHIBITORS AND METHODS OF USE THEREOF” (priority 2018, published 2020).

Legend:
[1] = target: VIM-2 (Escherichia coli, UniProt Q5U7L7); experiment: Enzyme activity: determination of IC50 (VIM-2); assay type: biochemical; settings: read-out: VIM2 IC50
[2] = target: VIM-1 (Pseudomonas aeruginosa, UniProt A0A0F7KYQ8); experiment: Enzyme activity: determination of IC50, fluorescence assay with CCF2-FA substrate (VIM-1); assay type: biochemical; settings: 30 pM enzyme, 1.25 μM CCF2-FA, 2 hours at 25° C.; read-out: VIM1 IC50
Procedure: (§1) The Class B enzyme activities were measured in the presence of the test inhibitor in a fluorescence assay against a commercially available substrate consisting of a cephalosporin core linking 7-hydroxycoumarin to fluorescein (CCF2-FA). The enzyme (NDM-1, IMP-1 or VIM-1) and the substrate were diluted in 100 mM KH2PO4 buffer (pH 7) containing 0.005% Tween-20 and 10 μM ZnSO4. In the assay, the final concentration of enzyme was 1 pM, 2 pM and 30 pM for NDM-1, IMP-1 and VIM-1, respectively, and the final concentration of CCF2-FA was 1.25 μM. The test inhibitor was dissolved in dimethylsulfoxide and diluted 1:50 in the assay, resulting in a final concentration range of 20 μM to 0.00063 μM. In a 384-well microplate, the test inhibitor was incubated with the metallo-β-lactamase enzyme and the substrate for 2 hours at 25° C. Fluorescence at 460 nm following excitation at 405 nm was measured. The IC50 value was determined from semi-logarithmic plots of enzyme inhibition versus inhibitor concentration, with a curve generated using a 4-parameter fit.

[3] = test system: P. aeruginosa MB9799 (efflux mutant, IMP-1); experiment: Efflux: concentration of MBL inhibitor restoring susceptibility to imipenem (MITC95), efflux− strain; assay type: cell-based, Pseudomonas aeruginosa; settings: imipenem at 2 μg/mL in the presence of a class A, C, D serine β-lactamase inhibitor closely related to relebactam
Text: (§2) In order to assess the contribution of efflux to lack of whole cell inhibition of metallo-beta-lactamase inhibitors of formula I, tool strains were constructed. The strain background is Pseudomonas aeruginosa PAO1. A wild-type (MB5919) and an isogenic strain in which multiple efflux pumps have been disrupted genetically were used. The MBL IMP-1, obtained from a clinical isolate was introduced into the strain pair by the following process:
(§3) Plasmid DNA (encoding IMP-1) was extracted from CL 5673 (IMP-1, P. aeruginosa clinical strain) by standard techniques. The plasmid DNA was transformed into parental MB5919 (oprD+, efflux+, inducible AmpC) and MB5890 (oprD+, efflux−, inducible AmpC) isogenic strains by electroporation. These transformed strains were plated onto cation-adjusted Muller-Hinton agar plates containing ceftazidime at 32 μg/mL (MB5919) and 16 μg/mL (MB5890) to select for those cells in which the IMP-1-expressing plasmid was introduced successfully, resulting in resistance to ceftazidime. Agarose-gel electrophoresis of PCR product for IMP-1 from the successful transformants was used to compare to control and to the original strain from which the plasmid was obtained, confirming transfer of the IMP-1 gene (data not shown).
(§4) The strain set was then used as a pair to determine the effect of metallo-β-lactamase inhibitors of Formula Ion the MIC of imipenem and/or ceftazidime. A fixed concentration of antibiotic is included in standard microbroth MIC tests, usually at the CLSI breakpoint concentration. A fixed amount of a class A/C beta-lactamase inhibitor is also included to inhibit the resident Pseudomonas AmpC enzyme. A serial titration of the metallo-β-lactamase inhibitor was included and the concentration of metallo-β-lactamase inhibitor which restores susceptibility of the strain to the included antibiotic was recorded. That concentration of metallo-β-lactamase inhibitor was then compared between the two strains to determine the fold difference between the efflux+(MB9798) and efflux−(MB9799) strains, which indicates n the extent to which the MBLi is subject to efflux.

[4] = target: NDM-1 (Klebsiella pneumoniae, UniProt C7C422); experiment: Enzyme activity: determination of IC50, fluorescence assay with CCF2-FA substrate (NDM-1); assay type: biochemical; settings: 1 pM enzyme, 1.25 μM CCF2-FA, 2 hours at 25° C.; read-out: NDM1 IC50
Procedure: as §1

[5] = test system: Escherichia coli expressing NDM-1 (CLB30016); experiment: Antibiotic potentiation activity: synergistic concentration (MITC95) with imipenem; assay type: cell-based; settings: imipenem 1 μg/mL; lowest concentration inhibiting 95% of growth; 35° C., 22-24 hours
Procedure: (§5) The bacterial strains tested included the clinical strains Escherichia coli expressing NDM-1 (CLB30005, CLB30016), Serratia marcescens expressing IMP-1 (CL5741), and Klebsiella pneumoniae expressing VIM-1 (IHMA599644). Inhibitor activity was measured in the presence and absence of imipenem in a 384-well microplate.
(§6) The clinical strains CLB30016, CL5741 and IHMA599644 were grown on trypticase soy agar containing 5% sheep's blood. The bacteria on agar plates were incubated at 35° C. with humidity overnight. The following day, individual colonies from each clinical strain were picked and resuspended in 5 mL saline to attain an OD600 of 0.14, 0.11, 0.15 and 0.13, for CLB30016, CL5741 and IHMA599644, respectively. These were further diluted 1:100 into 1.1× CAMHB and used to inoculate the test wells as described below.
(§7) Imipenem in 10 mM 3-(N-morpholino)propanesulfonic acid (MOPS, pH 7) was stored in single use aliquots at −80° C. […] On the day of the assay, 4 μl of antibiotic was added to 45 μl of bacteria followed by 1 μl of test compound and mixed by pipetting and with an orbital shaker. The concentration of antibiotic used in the assay was 1 μg/mL. Microplates were covered and incubated at 35° C. for 22 hours to 24 hours. At the end of the incubation, absorbance was determined using a spectrophotometer. The synergistic concentration of MBLI was determined by identifying the lowest concentration of test compound in the presence of a given concentration of antibiotic that was required to inhibit 95% of the growth of the bacteria. The results for Examples 1-209 are reported in Table 1, expressed as the concentration of compound that potentiated the action of antibiotic (imipenem) affecting 95% inhibition of bacterial growth (MITC95).

[6] = test system: Serratia marcescens expressing IMP-1 (CL5741); experiment: as above; assay type: cell-based; settings: imipenem 1 μg/mL; lowest concentration inhibiting 95% of growth; 35° C., 22-24 hours
Procedure: as §5, §6, §7

[7] = test system: Klebsiella pneumoniae expressing VIM-1 (IHMA599644); experiment: as above; assay type: cell-based; settings: imipenem 1 μg/mL; lowest concentration inhibiting 95% of growth; 35° C., 22-24 hours
Procedure: as §5, §6, §7

[8] = test system: P. aeruginosa MB9798 (efflux WT, IMP-1); experiment: Efflux: concentration of MBL inhibitor restoring susceptibility to imipenem (MITC95), efflux+ strain; assay type: cell-based, Pseudomonas aeruginosa; settings: imipenem at 2 μg/mL in the presence of a class A, C, D serine β-lactamase inhibitor closely related to relebactam
Text: as §2, §3, §4

[9] = target: IMP-1 (Serratia marcescens, UniProt P52699); experiment: Enzyme activity: determination of IC50, fluorescence assay with CCF2-FA substrate (IMP-1); assay type: biochemical; settings: 2 pM enzyme, 1.25 μM CCF2-FA, 2 hours at 25° C.; read-out: IMP1 IC50
Procedure: as §1

Sequence of NDM-1 (C7C422 29-270, looked up, species assumed): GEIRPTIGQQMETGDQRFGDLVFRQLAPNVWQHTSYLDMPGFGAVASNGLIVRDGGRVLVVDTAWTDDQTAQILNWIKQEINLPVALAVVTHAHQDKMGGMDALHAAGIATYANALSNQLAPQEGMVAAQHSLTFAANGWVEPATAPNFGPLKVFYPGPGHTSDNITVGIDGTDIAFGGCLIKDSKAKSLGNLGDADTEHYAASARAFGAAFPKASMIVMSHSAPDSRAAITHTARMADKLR
Sequence of IMP-1 (P52699 19-246, looked up, species assumed): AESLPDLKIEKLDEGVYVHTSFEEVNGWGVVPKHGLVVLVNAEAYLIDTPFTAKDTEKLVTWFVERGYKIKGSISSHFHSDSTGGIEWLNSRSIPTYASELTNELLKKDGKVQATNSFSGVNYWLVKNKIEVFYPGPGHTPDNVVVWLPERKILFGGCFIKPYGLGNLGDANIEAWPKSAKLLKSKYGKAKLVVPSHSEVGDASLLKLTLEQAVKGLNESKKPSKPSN

Structure (SMILES) | IC50 [1] | IC50 [2] | MB9799 MITC95 P. aeruginosa Efflux Mutant [3] | IC50 [4] | CLB30016 E.coli MITC95 NDM [5] | CL5741 S.marcescens MITC95 uM IMP [6] | IHMA599644 K.pneumoniae MITC95 uM VIM [7] | MB9798 MITC95 P. aeruginosa Efflux WT [8] | IC50 [9]
NC[C@@H](O)CNS(=O)(=O)c1ccc(N2CCCn3ccnc32)c(-c2nnn[nH]2)c1S(N)(=O)=O [Example 16, (R)-N1-(3-amino-2-hydroxypropyl)-4-(6,7-dihydroimidazo[1,2-a]pyrimidin-8(5H)-yl)-3-(1H-tetrazol-5-yl)benzene-1,2-disulfonamide] | 1.01 nM | 0.38 nM | 0.78 µM | 1.2 nM | 0.10 µM | 0.39 µM | 1.56 µM | 3.13 µM | 5.93 nM
C[C@H](CN)NS(=O)(=O)c1ccc(N2CCCn3ccnc32)c(-c2nnn[nH]2)c1S(N)(=O)=O [Example 17, (R)-N1-(1-aminopropan-2-yl)-4-(6,7-dihydroimidazo[1,2-a]pyrimidin-8(5H)-yl)-3-(1H-tetrazol-5-yl)benzene-1,2-disulfonamide] | 1.11 nM | 0.22 nM | 0.78 µM | 0.36 nM | 0.78 µM | 0.78 µM | 1.56 µM | 1.56 µM | 2.17 nM
NC[C@H](O)CNS(=O)(=O)c1ccc(N2CCCn3ccnc32)c(-c2nnn[nH]2)c1S(N)(=O)=O [Example 18, (S)-N1-(3-amino-2-hydroxypropyl)-4-(6,7-dihydroimidazo[1,2-a]pyrimidin-8(5H)-yl)-3-(1H-tetrazol-5-yl)benzene-1,2-disulfonamide] | 1.99 nM | 0.76 nM | 0.78 µM | 1.87 nM | 0.10 µM | 0.39 µM | 1.56 µM | 3.13 µM | 8.07 nM
NC[C@@H](O)CNS(=O)(=O)c1ccc(N2CCn3ccnc32)c(-c2nnn[nH]2)c1S(N)(=O)=O [Example 19, (R)—N1-(3-amino-2-hydroxypropyl)-4-(2,3-dihydro-1H-imidazo[1,2-a]imidazol-1-yl)-3-(1H-tetrazol-5-yl)benzene-1,2-disulfonamide] | 9.8 nM | 5.96 nM | 1.56 µM | 1.03 nM | 0.20 µM | 0.78 µM | 3.13 µM | 6.25 µM | 12.1 nM
NCCNS(=O)(=O)c1ccc(N2CCn3ccnc32)c(-c2nnn[nH]2)c1S(N)(=O)=O [Example 20, N1-(2-aminoethyl)-4-(2,3-dihydro-1H-imidazo[1,2-a]imidazol-1-yl)-3-(1H-tetrazol-5-yl)benzene-1,2-disulfonamide] | 15.1 nM | 12.4 nM | 0.78 µM | 1.7 nM | 0.39 µM | 0.78 µM | 3.13 µM | 6.25 µM | 9.68 nM
NS(=O)(=O)c1c(S(=O)(=O)N[C@@H]2CCNC2)ccc(N2CCCc3ccncc32)c1-c1nnn[nH]1 [Example 21, 4-(3,4-dihydro-1,7-naphthyridin-1(2H)-yl)-N1-[(3R)-pyrrolidin-3-yl]-3-(1H-tetrazol-5-yl)benzene-1,2-disulfonamide] | 1.24 nM | 0.22 nM | 1.56 µM | 0.21 nM | 0.20 µM | 0.78 µM | 6.25 µM | 3.13 µM | 2.46 nM
NS(=O)(=O)c1c(S(=O)(=O)N[C@@H]2CCNC2)ccc(N2Cc3cccnc3C2)c1-c1nnn[nH]1 [Example 22, 4-(5,7-dihydro-6H-pyrrolo[3,4-b]pyridin-6-yl)-N1-[(3R)-pyrrolidin-3-yl]-3-(1H-tetrazol-5-yl)benzene-1,2-disulfonamide] | 2.31 nM | 0.59 nM | 1.56 µM | 0.62 nM | 0.78 µM | 3.13 µM | 6.25 µM | 3.13 µM | 0.17 nM
NS(=O)(=O)c1c(S(=O)(=O)N[C@@H]2CCNC2)ccc(N2CCc3cccnc3C2)c1-c1nnn[nH]1 [Example 23, 4-(5,8-dihydro-1,7-naphthyridin-7(6H)-yl)-N1-[(3R)-pyrrolidin-3-yl]-3-(1H-tetrazol-5-yl)benzene-1,2-disulfonamide] | 39 nM | 21 nM | 6.25 µM | 24.3 nM | 3.13 µM | 12.50 µM | 12.50 µM | 50.00 µM | 43.9 nM
